Tested on: R223X stop codon in the mutated luciferase gene, ADXC8 luciferase reporter cell line
Assay: cells
Type: cell-based
Settings: 24 h, ADXC8 cells, 24 hours; for Emax: read-out: Fold Over Control, maximum fold response relative to 200 μM G418; for EC (100% of 200 uM G418 response): read-out: pC100%, negative logarithm of the concentration giving the same response as 200 μM G418
Method: The read-through activity of compounds was assessed using the ADXC8 luciferase reporter cell line (generated as described in McElroy et al. PLoS Biology (2013), 11, e1001593). […] The amount of luciferase is measured by adding a lysis buffer containing luciferin substrate and detecting luminescence using the following protocol:
ADXC8 cells in assay media (DMEM+10% FBS) were seeded into 96-well tissue culture treated white plates (Greiner) to a density of 13,000 cells per well and incubated for 24 hours at 37° C. in an atmosphere of 5% CO2. […] Plates were incubated for a further 24 hours at 37° C. in an atmosphere of 5% CO2. Cells treated with 200 μM G418 (with 1% DMSO) were used as a positive control.
Cell viability and firefly luciferase activity were measured in the same assay wells. CellTiter-Fluor™ reagent was prepared as per manufacturer's instructions (Promega E7120) and 20 μl of 5× CellTiter-Fluor™ reagent was added to all wells, briefly mixed by orbital shaking (300-500 rpm for −30 seconds) and the plates incubated for 30-45 minutes at 37° C. in an atmosphere of 5% C02. Cell viability was measured by monitoring fluorescence on a CLARIOstar® plate reader (BMG Labtech). Cells containing 1% DMSO were used as a positive control and cells with 400 μM Doxorubicin were used as negative control to define 100 and 0% respectively. ONE-Glo™ luciferase assay buffer (Promega E7120) was prepared according to manufacturer's instructions and 100 μl of luciferase reagent was added to each well and the plate incubated at RT for 3 mins before measuring the luminescence on the CLARIOstar® plate reader (BMG Labtech). Cells treated with 200 μM G418 (with 1% DMSO) were used as a positive control and arbitrarily assigned a value of 100%. Cells treated with 1% DMSO were used as the negative control to define 0% response.
Concentration effect curves were analysed using non-linear regression using the CDD Vault from Collaborative Drug Discovery (Burlingame, CA). […] The bottom and top of the curves were constrained to 0 and the maximum measured response respectively. From the fitted curves, the software derived C100% values (the concentration giving the same response as 200 μM G418) for each compound. The negative logarithm of C100% is reported as pC100% (Table 1). In addition to pC100% values, the maximum fold response relative to 200 μM G418 (Fold over Control) was also captured (Table 1). A pC100% categorisation of ‘-’ in Table 1 represents examples in which a pC100% response was not reached when assayed at a concentration of 100 μM. A pC100% categorisation of ‘*’ in Table 1 represents examples in which a pC100% response was not reached when assayed at a concentration of 30 μM.

Row | SMILES | Emax | EC (100% of 200 uM G418 response)
1 | COC(C)c1ccc2c(N)nc(NC3CCN(C)CC3)nc2n1 (centres unmarked) [Example 290] | 100 to 3000% | 10 to 100 µM
2 | COCCNc1nc(NC2CCN(C)CC2)nc2nc(C)cc(C)c12 [Example 269] | 100 to 3000% | 1 to 10 µM
3 | CC(=O)c1ccnc2nc(NC3CCN(C)CC3)nc(N)c12 [Example 309] | 0 to 100% | > 100 µM
4 | Cc1cc(C)c2c(N)nc(N[C@@H]3CCNC[C@H]3F)nc2n1 [Example 585] | 100 to 3000% | 1 to 10 µM
5 | Cc1cc(C)c2c(Nc3ccccc3)nc(NC3CCN(C)CC3)nc2n1 [Example 267] | 0 to 100% | > 31.6 µM
6 | CNc1nc(N[C@H]2CN(C)CC[C@H]2OC)nc2nc(C)cc(C)c12 [Example 591] | 100 to 3000% | 0.1 to 1 µM
7 | CNc1nc(NCC2CN3CCC2C3)nc2nc(C)cc(C)c12 (centres unmarked) [Example 404] | 0 to 100% | > 31.6 µM
8 | Cc1cc(C)c2c(N)nc(NCCCN3CC4(COC4)C3)nc2n1 [Example 29, N^2-(3-(2-oxa-6-azaspiro[3.3]heptan-6-yl)propyl)-5,7-dimethylpyrido[2,3-d]pyrimidine-2,4-diamine] | 100 to 3000% | 10 to 100 µM
9 | Cc1cc(C)c2c(N(C)C)nc(NC3CCN(C)CC3)nc2n1 [Example 262] | 100 to 3000% | 10 to 100 µM
10 | Cc1c2c(nc3nc(N[C@@H]4CCCNC4)nc(N)c13)CCC2 [Example 581] | 100 to 3000% | 0.01 to 0.1 µM
11 | Cc1cc(C)c2c(NCc3cccnc3)nc(NC3CCN(C)CC3)nc2n1 [Example 318] | 0 to 100% | > 31.6 µM
12 | CC(=O)c1ccc2c(N)nc(NC3CCN(C)CC3)nc2n1 [Example 289] | 100 to 3000% | 1 to 10 µM
13 | Cc1cc(C)c2c(N)nc(N[C@H]3CCCC[C@@H]3N(C)C)nc2n1 [Example 155] | 0 to 100% | > 31.6 µM
14 | CNc1ccc(-c2ccc3c(N)nc(NC4CCN(C)CC4)nc3n2)cc1 [Example 53] | 100 to 3000% | 1 to 10 µM
15 | CNc1nc(N[C@H]2CN(C)C[C@H]2F)nc2nc(C)c3c(c12)CCC3 [Example 366] | 100 to 3000% | 0.1 to 1 µM
16 | Cc1c2c(nc3nc(NC4CCN(Cc5cc(F)cc(F)c5O)CC4)nc(N)c13)CCC2 [Example 654] | 100 to 3000% | 1 to 10 µM
17 | CNc1nc(N[C@@H]2CCN(C)C2)nc2nc(OC)c(CCO)c(C)c12 [Example 513, (R)-2-(7-methoxy-5-methyl-4-(methylamino)-2-((1-methylpyrrolidin-3-yl)amino)pyrido[2,3-d]pyrimidin-6-yl)ethan-1-ol] | 0 to 100% | > 31.6 µM
18 | Cc1cc(C)c2c(N)nc(N[C@H]3CCNC[C@@H]3F)nc2n1 [Example 590] | – | 1 to 10 µM
19 | CNc1nc(NC2CCN3CCCC23)nc2nc(C)cc(C)c12 (centres unmarked) [Example 439] | 0 to 100% | > 31.6 µM
20 | Cc1cc(C)c2c(N)nc(NC3CCN(Cc4cccc(C#N)c4)CC3)nc2n1 [Example 499] | 100 to 3000% | 1 to 10 µM
21 | CN1CCC(Nc2nc(N)c3ccc(-c4ccc(C(F)(F)F)cc4)nc3n2)CC1 [Example 66] | 0 to 100% | > 100 µM
22 | CCNc1nc(N[C@H]2CN(C)C[C@H]2F)nc2nc(C)cc(C)c12 [Example 395] | – | 1 to 10 µM
23 | CCN1CCC(Nc2nc(N)c3c(C)cc(C)nc3n2)CC1 [Example 213] | 100 to 3000% | 1 to 10 µM
24 | Cc1cc(-c2ccccc2)nc2nc(NC3CCN(C)CC3)nc(N)c12 [Example 16, 5-methyl-N^2-(1-methylpiperidin-4-yl)-7-phenylpyrido[2,3-d]pyrimidine-2,4-diamine] | – | 0.1 to 1 µM
25 | CNC(=O)c1ccc(CN2CCC(Nc3nc(N)c4c(C)cc(C)nc4n3)CC2)cc1 [Example 475] | 100 to 3000% | 10 to 100 µM
